Earlier results, collected in publication PMC8541353, “A Novel Phenylpyrrolidine Derivative: Synthesis and Effect on Cognitive Functions in Rats with Experimental Ishemic Stroke” (Molecules, 2021).

Conditions: cited from earlier work

NC(=O)CN1CC(O)CC1=O (centres unmarked) [Oxiracetam]
Literature Report of BBB Permeability: Low [20]

CC[C@@H](C(N)=O)N1C[C@H](C=C(F)F)CC1=O [Seletracetam]
Literature Report of BBB Permeability: Very good [19]
